The source made the active and inactive calls.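 Rule for the calls: active = IC50 below three times the IC50 of the reference antileishmanial control drug; inactive = the rest.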
System: L. donovani axenic amastigotes, Alamar blue, 72 h
Assay: antileishmanial activity on axenic amastigotes – plate reader, cherry pick, dose response (AID 651891)

Q: For `C[C@@H]1CN([C@@H](C)CO)C(=O)c2cccc(NC(=O)c3ccncc3)c2O[C@H]1CN(C)Cc1ccc(Oc2ccccc2)cc1`, which IC50 is on record?
A: 21.2 µM (inactive)
